# Source: publication PMC10743905, “Design, Synthesis, and In Vitro and In Vivo Bioactivity Studies of Hydrazide–Hydrazones of 2,4-Dihydroxybenzoic Acid” (International Journal of Molecular Sciences, 2023)
# Read-outs that look alike come from different tables or passages of the source.
# How the values were obtained:
# [1] = test system: Neisseria gonorrhoeae; parameters: method as in PMID 23510516; details: cited from earlier work
# [2] = test system: Pasteurella multocida; parameters: method as in PMID 23510516; details: cited from earlier work
# [3] = test system: MCF-7 cell line; parameters: method as in PMID 34578985; details: MCF-7 breast cancer cell line; cited from earlier work
# [4] = test system: Enterococcus faecalis; parameters: method as in PMID 23510516; details: cited from earlier work
# [5] = test system: MDA-MB-231 cell line; parameters: method as in PMID 34578985; details: MDA-MB-231 breast cancer cell line; cited from earlier work
# [6] = test system: Staphylococcus aureus MRSA strain; parameters: method as in PMID 23510516; details: cited from earlier work
# [7] = test system: Escherichia coli; parameters: method as in PMID 23510516; details: cited from earlier work
# [8] = test system: Proteus mirabilis ATCC 12453; assay: Broth microdilution MIC/MBC; type: cell-based
# Procedure, shortened: (§1)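 Strains were subcultured on nutrient or Sabouraud agar, suspended to 0.5 McFarland in saline, then added to wells holding two-fold compound dilutions. Final concentrations ranged 1000 to 0.488 µg/ml in Mueller-Hinton broth or RPMI 1640 with MOPS.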
# [9] = test system: Staphylococcus epidermidis ATCC 12228; assay: Broth microdilution MIC/MBC; type: cell-based
# Procedure, shortened: as §1
# [10] = test system: Staphylococcus aureus ATCC 29213; assay: Broth microdilution MIC/MBC; type: cell-based
# Procedure, shortened: as §1
# [11] = test system: Staphylococcus aureus ATCC 43300; assay: Broth microdilution MIC/MBC; type: cell-based; details: Staphylococcus aureus ATCC 43300 (MRSA)
# Procedure, shortened: as §1
# [12] = test system: Salmonella typhimurium ATCC 14028; assay: Broth microdilution MIC/MBC; type: cell-based
# Procedure, shortened: as §1
# [13] = test system: Micrococcus luteus ATCC 10240; assay: Broth microdilution MIC/MBC; type: cell-based
# Procedure, shortened: as §1
# [14] = test system: Pseudomonas aeruginosa ATCC 9027; assay: Broth microdilution MIC/MBC; type: cell-based; details: ATCC9027
# Procedure, shortened: as §1
# [15] = test system: reference Gram-positive bacteria; assay: Broth microdilution, summary over the Gram-positive panel; type: cell-based; details: read-out: MIC
# Excerpt: (§2) In vitro antimicrobial activity assays - Methodology
# (§3) The examined compounds 1 - 24 were screened in vitro for antibacterial and antifungal activities using the broth microdilution method according to procedure reported earlier by our research group and European Committee on Antimicrobial Susceptibility Testing (EUCAST) and Clinical and Laboratory Standards Institute (CLSI) guidelines against a panel of reference and clinical or saprophytic strains of microorganisms, in-cluding Gram-positive bacteria, Staphylococcus aureus ATCC 43300 (Methicillin Resistant S. aureus – MRSA), Staphylococcus aureus ATCC 29213 (Methicillin Susceptible S. aureus – MSSA), Staphylococcus epidermidis ATCC 12228, Enterococcus faecalis ATCC 29212, Micro-coccus luteus ATCC 10240, Bacillus subtilis ATCC 6633 and Bacillus cereus ATCC 10876), Gram-negative bacteria (Bordetella bronchiseptica ATCC 4617, Escherichia coli ATCC 25922, Klebsiella pneumoniae ATCC 13883, Proteus mirabilis ATCC 12453, Salmonella typhimurium ATCC 14028 and Pseudomonas aeruginosa ATCC 9027) and fungi belonging to yeasts (Can-dida albicans ATCC 10231, Candida albicans ATCC 2091, Candida parapsilosis ATCC 22019, Candida glabrata ATCC 90030 and Candida krusei ATCC 14243). The microorganisms be-longing to ATCC came from American Type Culture Collection, routinely used for the evaluation of antimicrobials. […]
# Samples containing examined compounds were dissolved in dimethyl sulfoxide (DMSO). […]
# (§4) Subsequently, the MIC (Minimal Inhibitory Concentration) of the compounds was ex-amined by the microdilution broth method, using their two-fold dilutions in Mueller- […]
# (§5) Hinton broth or (for bacteria) and RPMI 1640 broth with MOPS (for fungi) prepared in 96-well polystyrene plates. Final concentrations of the compounds ranged from 1000 to 0.488 µg/ml. Microbial suspensions were prepared in 0.85% NaCl with an optical density of 0.5 McFarland standard. Next each bacterial or fungal suspension was added per each well containing broth and various concentrations of the examined compounds. After incuba-
# [16] = test system: Bacillus subtilis ATCC 6633; assay: Broth microdilution MIC/MBC; type: cell-based
# Procedure, shortened: as §1
# [17] = test system: Candida albicans ATCC 10231; assay: Broth microdilution MIC/MFC; type: cell-based; details: ATCC10231, read-out: MIC
# Procedure, shortened: as §1
# [18] = test system: Candida glabrata ATCC 90030; assay: Broth microdilution MIC/MFC; type: cell-based
# Procedure, shortened: as §1
# [19] = test system: Candida albicans ATCC 2091; assay: Broth microdilution MIC/MFC; type: cell-based; details: ATCC2091, read-out: MIC
# Procedure, shortened: as §1
# [20] = test system: Candida krusei ATCC 14243; assay: Broth microdilution MIC/MFC; type: cell-based; details: Pichia kudriavzevii, ATCC14243, read-out: MIC
# Procedure, shortened: as §1
# [21] = test system: Candida parapsilosis ATCC 22019; assay: Broth microdilution MIC/MFC; type: cell-based
# Procedure, shortened: as §1
# [22] = test system: Gram-negative bacteria; assay: Broth microdilution, summary over the Gram-negative panel; type: cell-based
# Excerpt: as §2
# as §3, with “antimicrobials. All the used microbial cultures were first subcultured on nu-trient agar or Sabouraud agar at 35°C for 18-24 h or 30°C for 24-48 h for bacteria and fungi,” for “antimicrobials.”
# The surface of Mueller-Hinton agar (for bacteria) and RPMI 1640 with MOPS (for fungi) were inoculated with the suspensions of bacterial or fungal species. Microbial suspensions were prepared in sterile saline with an optical density of McFarland standard scale 0.5.
# Samples containing examined compounds were dissolved in dimethyl sulfoxide (DMSO).
# Furthermore, bacterial and fungal suspensions were put onto Petri dishes with solid me-dia containing 2 mg/mL of the tested compounds followed incubation at 37°C for 24h and 30°C for 48h for bacteria and fungi, respectively. The inhibition of microbial growth was judged by comparison with a control culture prepared without any sample tested. Ciprof-loxacin, vancomycin, nitrofurantoin, cefuroxime, ampicillin or nystatin (Sigma) were used as a reference antibacterial or antifungal compounds, respectively.
# as §4, §5
# [23] = test system: Escherichia coli ATCC 25922; assay: Broth microdilution MIC/MBC; type: cell-based
# Procedure, shortened: as §1
# [24] = test system: Bacillus cereus ATCC 10876; assay: Broth microdilution MIC/MBC; type: cell-based
# Procedure, shortened: as §1
# [25] = test system: Klebsiella pneumoniae ATCC 13883; assay: Broth microdilution MIC/MBC; type: cell-based
# Procedure, shortened: as §1
# [26] = test system: Enterococcus faecalis ATCC 29212; assay: Broth microdilution MIC/MBC; type: cell-based
# Procedure, shortened: as §1
# [27] = test system: Bordetella bronchiseptica ATCC 4617; assay: Broth microdilution MIC/MBC; type: cell-based
# Procedure, shortened: as §1
smiles,measurement,setting,value
"O=C(O)c1ccc(O)cc1O [2,4-dihydroxybenzoic acid]",MIC,[1],1000 µg/mL
same,MIC,[2],1000 µg/mL
same,cytotoxicity,[3],nontoxic
same,MIC,[4],1000 µg/mL
same,IC50,[5],4.77 mM
same,MIC,[6],500 µg/mL
same,MIC,[7],1000 µg/mL
"Cc1cccc(/C=N/NC(=O)c2ccc(O)cc2O)c1 [Compound 2, 2,4-dihydroxy-N-[(3-methylphenyl)methylidene]benzohydrazide]",MBC/MIC,[8],> 1
same,MBC,[8]; ATCC12453,> 1000 µg/mL
same,MIC,[8]; ATCC12453,1000 µg/mL
same,MBC/MIC,[9],2
same,MBC,[9]; ATCC12228,500 µg/mL
same,MIC,"[9]; ATCC12228, read-out: MIC",250 µg/mL
same,MBC/MIC,[10],1
same,MBC,[10]; ATCC29213,250 µg/mL
same,MIC,[10]; ATCC29213,250 µg/mL
same,MBC,[11],500 µg/mL
same,MBC/MIC,[11],2
same,MIC,[11],250 µg/mL
same,MBC/MIC,[12],> 1
same,MBC,[12]; Salmonella enterica,> 1000 µg/mL
same,MIC,[12]; Salmonella enterica,1000 µg/mL
same,MBC/MIC,[13],8
same,MIC,[13],31.25 µg/mL
same,MBC,[13]; ATCC10240,250 µg/mL
same,MIC,"[13]; ATCC10240, read-out: MIC",31.2 µg/mL
same,MIC,[14],> 1000 µg/mL
same,MIC,[15],15.6 to 1000 µg/mL
same,MBC/MIC,[16],8
same,MIC,[16],62.5 µg/mL
same,MBC,[16]; ATCC6633,500 µg/mL
same,MIC,"[16]; ATCC6633, read-out: MIC",62.5 µg/mL
same,MIC,[17],> 1000 µg/mL
same,MFC/MIC,[18],2
same,MFC,"[18]; Nakaseomyces glabratus, ATCC90030, read-out: MFC",500 µg/mL
same,MIC,"[18]; Nakaseomyces glabratus, ATCC90030, read-out: MIC",250 µg/mL
same,MIC,[19],> 1000 µg/mL
same,MIC,[20],> 1000 µg/mL
same,MFC/MIC,[21],> 2
same,MFC,"[21]; Lodderomyces parapsilosis, ATCC22019, read-out: MFC",> 1000 µg/mL
same,MIC,"[21]; Lodderomyces parapsilosis, ATCC22019, read-out: MIC",500 µg/mL
same,MBC,[22],> 1000 µg/mL
same,MIC,[22],500 to 1000 µg/mL
same,MBC/MIC,[23],> 1
same,MBC,[23]; ATCC25922,> 1000 µg/mL
same,MIC,[23]; ATCC25922,1000 µg/mL
same,MBC/MIC,[24],2
same,MBC,[24]; ATCC10876,250 µg/mL
same,MIC,"[24]; ATCC10876, read-out: MIC",125 µg/mL
same,MBC/MIC,[25],> 1
same,MBC,[25]; ATCC13883,> 1000 µg/mL
same,MIC,[25]; ATCC13883,1000 µg/mL
same,MBC/MIC,[26],1
same,MBC,"[26]; ATCC29212, read-out: MBC",500 µg/mL
same,MIC,"[26]; ATCC29212, read-out: MIC",500 µg/mL
same,MBC/MIC,[27],> 1
same,MBC,[27]; ATCC4617,> 1000 µg/mL
same,MIC,[27]; ATCC4617,1000 µg/mL
